How the values were obtained:
[1] = target: baculovirus-expressed ALK (Homo sapiens, UniProt Q9UM73); experiment: ALK Kinase Assay (ELISA/TRF, PLC-γ substrate); assay type: biochemical; details: read-out: ALK Kinase Inhibition (IC50); further: 1 µM ATP (Km level)
Summary of the method: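 ALK at 30 ng/ml phosphorylated plate-bound PLC-γ–GST fusion (coated from 10 μg/mL) during 15 minutes at 37° C. Product was detected with Eu-N1 PT66 anti-phosphotyrosine antibody and measured by time-resolved fluorescence.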

[2] = target: T1, c-Met (cytoplasmic domain) (Homo sapiens, UniProt P08581); experiment: c-Met Kinase Assay (ELISA/TRF, PLC-γ substrate); assay type: biochemical; details: 3 μM ATP (Km level); read-out: c-Met Kinase Inhibition (IC50)
T1 construct: Reactions were initiated with 30 ng/mL c-Met (cytoplasmic domain, Invitrogen Corporation #PV3143); purchased Invitrogen Corporation PV3143
T1 sequence (P08581 956-1390 limits assumed): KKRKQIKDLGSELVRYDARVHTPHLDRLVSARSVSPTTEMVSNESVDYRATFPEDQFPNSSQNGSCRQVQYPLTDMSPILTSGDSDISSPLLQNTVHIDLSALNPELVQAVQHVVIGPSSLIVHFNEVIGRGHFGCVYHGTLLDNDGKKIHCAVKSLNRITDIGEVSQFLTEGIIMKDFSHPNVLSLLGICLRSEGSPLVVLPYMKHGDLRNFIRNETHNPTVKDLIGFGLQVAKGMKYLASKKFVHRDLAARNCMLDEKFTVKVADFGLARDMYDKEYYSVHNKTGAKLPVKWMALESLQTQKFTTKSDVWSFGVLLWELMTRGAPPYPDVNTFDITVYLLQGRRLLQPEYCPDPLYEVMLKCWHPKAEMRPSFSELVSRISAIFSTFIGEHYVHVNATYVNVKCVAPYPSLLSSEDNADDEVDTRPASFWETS
Summary of the method: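 Readout is TRF of europium anti-phosphotyrosine (PT66) bound to GST–PLC-γ substrate coated at 10 μg/mL, after a 15 min, 37 °C reaction started with 30 ng/mL c-Met cytoplasmic domain. Percent inhibition plotted against log compound concentration and fitted (variable slope) for IC50.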

Chain of baculovirus-expressed ALK (Q9UM73 19-1620): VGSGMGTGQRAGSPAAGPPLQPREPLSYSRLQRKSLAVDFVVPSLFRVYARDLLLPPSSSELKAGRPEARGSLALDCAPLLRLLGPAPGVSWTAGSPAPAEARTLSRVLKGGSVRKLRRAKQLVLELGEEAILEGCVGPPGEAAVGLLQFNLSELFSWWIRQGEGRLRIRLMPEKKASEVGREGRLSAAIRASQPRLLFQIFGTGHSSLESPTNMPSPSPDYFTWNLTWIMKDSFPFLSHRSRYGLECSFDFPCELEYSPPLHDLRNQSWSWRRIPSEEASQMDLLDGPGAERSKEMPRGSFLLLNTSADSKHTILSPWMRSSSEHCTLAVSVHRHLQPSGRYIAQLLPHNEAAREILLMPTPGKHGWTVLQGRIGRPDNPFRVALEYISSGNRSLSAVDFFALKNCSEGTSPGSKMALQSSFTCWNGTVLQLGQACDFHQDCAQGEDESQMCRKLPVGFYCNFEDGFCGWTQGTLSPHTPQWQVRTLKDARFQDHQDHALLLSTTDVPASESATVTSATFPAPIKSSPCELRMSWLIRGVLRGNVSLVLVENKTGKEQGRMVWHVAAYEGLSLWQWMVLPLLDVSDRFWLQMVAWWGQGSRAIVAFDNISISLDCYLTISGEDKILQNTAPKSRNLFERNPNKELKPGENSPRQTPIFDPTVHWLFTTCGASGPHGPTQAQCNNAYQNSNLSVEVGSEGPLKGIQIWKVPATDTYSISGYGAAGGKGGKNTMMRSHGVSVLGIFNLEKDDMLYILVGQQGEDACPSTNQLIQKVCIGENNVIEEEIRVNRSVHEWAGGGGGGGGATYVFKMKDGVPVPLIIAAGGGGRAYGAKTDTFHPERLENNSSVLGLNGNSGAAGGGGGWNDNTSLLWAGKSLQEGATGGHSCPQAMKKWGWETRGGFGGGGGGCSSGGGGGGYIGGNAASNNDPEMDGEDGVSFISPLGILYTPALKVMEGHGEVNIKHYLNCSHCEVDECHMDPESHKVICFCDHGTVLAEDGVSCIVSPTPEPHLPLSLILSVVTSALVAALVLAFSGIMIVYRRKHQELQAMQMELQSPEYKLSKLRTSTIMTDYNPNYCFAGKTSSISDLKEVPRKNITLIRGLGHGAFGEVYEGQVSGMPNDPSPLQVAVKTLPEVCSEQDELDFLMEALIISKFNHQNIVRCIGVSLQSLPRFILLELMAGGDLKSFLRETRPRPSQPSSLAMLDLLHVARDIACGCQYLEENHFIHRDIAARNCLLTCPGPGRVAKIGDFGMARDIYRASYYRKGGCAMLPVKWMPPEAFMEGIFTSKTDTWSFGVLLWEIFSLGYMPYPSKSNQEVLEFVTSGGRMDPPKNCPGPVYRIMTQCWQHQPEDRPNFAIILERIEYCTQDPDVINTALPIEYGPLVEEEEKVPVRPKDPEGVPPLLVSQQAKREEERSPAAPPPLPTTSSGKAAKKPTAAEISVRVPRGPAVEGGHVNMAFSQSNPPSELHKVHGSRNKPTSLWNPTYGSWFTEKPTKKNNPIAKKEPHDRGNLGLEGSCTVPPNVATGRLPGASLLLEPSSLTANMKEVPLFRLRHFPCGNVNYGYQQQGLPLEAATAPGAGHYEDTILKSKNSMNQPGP

| SMILES | IC50 [1] [µM] | IC50 [2] [µM] | melting point |
| --- | --- | --- | --- |
| OC1CCNc2ncc(Br)cc21 (stereo not drawn) [Example 268, 6-bromo-1,2,3,4-tetrahydro-[1,8]naphthyridin-4-ol] | > 100 | > 100 | 125 to 128 °C |
| O=C1CNc2ncc(-c3cccnc3)cc2N1Cc1ccccc1 [Example 11, 1-Benzyl-7-pyridin-3-yl-3,4-dihydro-1H-pyrido[2,3-b]pyrazin-2-one] | 10 to 100 | 10 to 100 | 58 °C |
| Ic1cnc2c(c1)N(Cc1ccccc1)CCN2 [Example 33, 1-Benzyl-7-iodo-1,2,3,4-tetrahydropyrido[2,3-b]pyrazine] | 10 to 100 | > 100 | 147 to 148 °C |
| OC1CNc2ncc(I)cc2N1Cc1cc(F)ccc1C(F)(F)F (stereo not drawn) [Example 134, 1-(5-Fluoro-2-trifluoromethylbenzyl)-7-iodo-1,2,3,4-tetrahydropyrido[2,3-b]pyrazin-2-ol] | 10 to 100 | 10 to 100 | 142 °C (dec.) |
| O=C(O)c1cncc(-c2cnc3c(c2)N(Cc2cc(F)ccc2F)CCN3)c1 [Example 74, 5-[1-(2,5-Difluorobenzyl)-1,2,3,4-tetrahydropyrido[2,3-b]pyrazin-7-yl]-nicotinic acid] | 10 to 100 | 10 to 100 | 255 to 260 °C |
| CC(=O)c1ccc(-c2cnc3c(c2)N(Cc2ccccc2)C(=O)CN3)cc1 [Example 21, 7-(4-Acetylphenyl)-1-benzyl-3,4-dihydro-1H-pyrido[2,3-b]pyrazin-2-one] | 10 to 100 | > 100 | 200 °C |
| CC1(C)Nc2ncc(I)cc2NC1=O [Example 91, 7-Iodo-3,3-dimethyl-3,4-dihydro-1H-pyrido[2,3-b]pyrazin-2-one] | > 100 | 10 to 100 | > 300 °C |
| FC(F)(F)c1ccc(CN2CCNc3ncc(I)cc32)o1 [Example 291, 7-Iodo-1-[5-(trifluoromethyl)furan-2-ylmethyl]-1,2,3,4-tetrahydropyrido[2,3-b]pyrazine] | 10 to 100 | > 100 | 153 to 154 °C |
| CN1CCN(c2ccc(-c3cnc4c(c3)C(O)CCN4)cn2)CC1 (stereo not drawn) [Example 269, 6-[6-(4-Methyl-piperazin-1-yl)pyridin-3-yl]-1,2,3,4-tetrahydro-[1,8]naphthyridin-4-ol] | > 100 | 10 to 100 | 124 to 128 °C |
| N#Cc1ccc(-c2cnc3c(c2)N(Cc2ccccc2)C(=O)CN3)cn1 [Example 28, 5-(1-Benzyl-2-oxo-1,2,3,4-tetrahydropyrido[2,3-b]pyrazin-7-yl)pyridine-2-carbonitrile] | > 100 | > 100 | > 200 °C |
| CN1CCN(C(=O)c2ccc(-c3cnc4c(c3)N(Cc3cc(F)c(F)cc3F)C(=O)CN4)cc2)CC1 [Example 85, 7-[4-(4-Methylpiperazine-1-carbonyl)phenyl]-1-(2,4,5-trifluorobenzyl)-3,4-dihydro-1H-pyrido[2,3-b]pyrazin-2-one] | 10 to 100 | 10 to 100 | 238 °C |
| O=C(O)c1cnc2c(c1)N(Cc1cc(F)ccc1F)CCN2 [Example 78, 1-(2,5-Difluorobenzyl)-1,2,3,4-tetrahydropyrido[2,3-b]pyrazine-7-carboxylic acid] | > 100 | > 100 | 231 °C (dec.) |

The remaining lines, values ahead:

| IC50 [1] [µM] | IC50 [2] [µM] | melting point | SMILES |
| --- | --- | --- | --- |
| 0.1 to 1 | 0.1 to 1 | 134 °C | CC(C)CCn1cc(-c2cnc3c(c2)N(Cc2c(F)ccc(F)c2Cl)CCN3)cn1 [Example 191, 1-(2-Chloro-3,6-difluorobenzyl)-7-[1-(3-methylbutyl)-1H-pyrazol-4-yl]-1,2,3,4-tetrahydropyrido[2,3-b]pyrazine] |
| 1 to 10 | 10 to 100 | 146 to 147 °C | O=S(=O)(c1ccccc1Cl)N1CCNc2ncc(I)cc21 [Example 124, 1-(2-Chlorobenzenesulfonyl)-7-iodo-1,2,3,4-tetrahydropyrido[2,3-b]pyrazine] |
| 10 to 100 | 10 to 100 | 200 °C (dec.) | CCOC(=O)CNc1ncc(I)cc1[N+](=O)[O-] [Example 1, (5-Iodo-3-nitro-pyridin-2-ylamino)-acetic acid ethyl ester] |
| 1 to 10 | 10 to 100 | 211 °C | COC(=O)c1cccc(-c2cnc3c(c2)N(Cc2ccccc2)C(=O)CN3)c1 [Example 30, 3-(1-Benzyl-2-oxo-1,2,3,4-tetrahydropyrido[2,3-b]pyrazin-7-yl)benzoic acid methyl ester] |
| 0.1 to 1 | 10 to 100 | 194 °C | Clc1cc(-c2cnc3c(c2)N(Cc2c(Cl)cccc2Cl)CCN3)ccn1 [Example 167, 7-(2-Chloropyridin-4-yl)-1-(2,6-dichlorobenzyl)-1,2,3,4-tetrahydropyrido[2,3-b]pyrazine] |
| 0.1 to 1 | 1 to 10 | > 300 °C | O=C(O)c1ccc(-c2cnc3c(c2)N(Cc2ccccc2)CCN3)cc1 [Example 36, 4-(1-Benzyl-1,2,3,4-tetrahydropyrido[2,3-b]pyrazin-7-yl)benzoic acid] |
| 1 to 10 | > 100 | 204 to 206 °C | N#Cc1cnc2c(c1)N(Cc1cc(F)ccc1F)CCN2 [Example 77, 1-(2,5-Difluorobenzyl)-1,2,3,4-tetrahydropyrido[2,3-b]pyrazine-7-carbonitrile] |
| 1 to 10 | > 100 | 169 °C | Clc1ccc(Cl)c(CN2CCNc3ncc(I)cc32)c1 [Example 158, 1-(2,5-Dichlorobenzyl)-7-iodo-1,2,3,4-tetrahydropyrido[2,3-b]pyrazine] |
| 10 to 100 | 10 to 100 | 145 to 147 °C | CN(C)CCNC(=O)c1ccc(-c2cnc3c(c2)N(C(=O)c2ccccc2)CCN3)cc1 [Example 52, 4-(1-Benzoyl-1,2,3,4-tetrahydropyrido[2,3-b]pyrazin-7-yl)-N-(2-dimethylamino-ethyl)benzamide] |
| 1 to 10 | 10 to 100 | 204 to 206 °C | CN1CCN(C(=O)c2ccc(-c3cnc4c(c3)N(Cc3cc(F)ccc3F)C(=O)C(C)(C)N4)cc2)CC1 [Example 95, 1-(2,5-Difluorobenzyl)-3,3-dimethyl-7-[4-(4-methylpiperazine-1-carbonyl)phenyl]-3,4-dihydro-1H-pyrido[2,3-b]pyrazin-2-one] |
| 1 to 10 | 1 to 10 | 168 °C | CN(C)CC#Cc1cnc2c(c1)N(Cc1cc(Cl)ccc1Cl)CCN2 [Example 173, {3-[1-(2,5-Dichlorobenzyl)-1,2,3,4-tetrahydropyrido[2,3-b]pyrazin-7-yl]prop-2-ynyl}-dimethylamine] |
| 10 to 100 | > 100 | 237 °C | O=C1CNc2ncc(I)cc2N1Cc1c(F)ccc(F)c1Cl [Example 3, 1-(2-Chloro-3,6-difluorobenzyl)-7-iodo-3,4-dihydro-1H-pyrido[2,3-b]pyrazin-2-one] |
| 0.1 to 1 | 10 to 100 | 243 to 244 °C | O=C(c1ccc(-c2cnc3c(c2)N(Cc2cc(Cl)ccc2C(F)(F)F)CCN3)cc1)N1CCN(c2nccs2)CC1 [Example 288, (4-{1-[5-Chloro-2-(trifluoromethyl)benzyl]-1,2,3,4-tetrahydropyrido[2,3-b]pyrazin-7-yl}phenyl)-(4-thiazol-2-yl-piperazin-1-yl)methanone] |
| 0.1 to 1 | 1 to 10 | 156 °C | Cn1cc(-c2cnc3c(c2)N(Cc2cc(Cl)ccc2C(F)(F)F)CCN3)cn1 [Example 203, 1-[5-Chloro-2-(trifluoromethyl)benzyl]-7-(1-methyl-1H-pyrazol-4-yl)-1,2,3,4-tetrahydropyrido[2,3-b]pyrazine] |
| 0.1 to 1 | 10 to 100 | 124 to 125 °C | CCOC(=O)c1cnc2c(c1)N(Cc1cc(F)ccc1F)CCN2 [Example 75, 1-(2,5-Difluorobenzyl)-1,2,3,4-tetrahydropyrido[2,3-b]pyrazine-7-carboxylic acid ethyl ester] |
| 1 to 10 | 10 to 100 | 74 to 77 °C | CC1(C)CN(Cc2cc(F)ccc2F)c2cc(-c3ccc(C(=O)N4CCC[C@H]4CN4CCCC4)cc3)cnc2N1 [Example 96, {4-[1-(2,5-Difluorobenzyl)-3,3-dimethyl-1,2,3,4-tetrahydropyrido[2,3-b]pyrazin-7-yl]phenyl}-((S)-2-((pyrrolidin-1-yl)methyl)pyrrolidin-1-yl)methanone] |
| 0.1 to 1 | 10 to 100 | 169 to 172 °C | CCOC(=O)c1cncc(-c2cnc3c(c2)N(Cc2cc(F)ccc2F)CCN3)c1 [Example 73, 5-[1-(2,5-Difluorobenzyl)-1,2,3,4-tetrahydropyrido[2,3-b]pyrazin-7-yl]-nicotinic acid ethyl ester] |
| 1 to 10 | 10 to 100 | > 200 °C | NC(=O)c1ccc(-c2cnc3c(c2)N(Cc2ccccc2)C(=O)CN3)cc1 [Example 23, 4-(1-Benzyl-2-oxo-1,2,3,4-tetrahydropyrido[2,3-b]pyrazin-7-yl)benzamide] |
| 1 to 10 | 10 to 100 | > 300 °C | O=C(O)c1ccc(-c2cnc3c(c2)N(Cc2cc(F)ccc2F)C(=O)CN3)cc1 [Example 56, 4-[1-(2,5-Difluorobenzyl)-2-oxo-1,2,3,4-tetrahydropyrido[2,3-b]pyrazin-7-yl]benzoic acid] |

Source: US7601716B2, “Pyridopyrazines and derivatives thereof as ALK and c-Met inhibitors” (Cephalon, Inc., priority 2006, dated 2009)
